Several values for one entry are separate records, joined by “and”; a condition that tells them apart may be missing. Identical values can stand only once. Toxic doses and inconclusive results are not listed.
Test system: P388 leukemia ip, CD2F1 mice, survival T/C
Experiment: NCI In Vivo Anticancer Drug Screen. Data for tumor model P388 Leukemia (intraperitoneal) in CD2F1 (CDF1) mice
Conditions: endpoint: median survival time, higher = longer survival
Outline: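 Mice carrying the transplanted tumor received test compound or vehicle. Survival was recorded in each group, and the value is the treated-group measurement divided by that of the vehicle-treated control group.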

[1] = dose: 50.0 mg/kg/injection, schedule: Q01DX005 (ip), vehicle: Klucel (hydroxypropylcellulose) (HPC)
[2] = dose: 100.0 mg/kg/injection, schedule: Q04DX003 (ip), vehicle: Klucel (hydroxypropylcellulose) (HPC)
[3] = dose: 200.0 mg/kg/injection, schedule: Q04DX003 (ip), vehicle: Klucel (hydroxypropylcellulose) (HPC)
[4] = dose: 400.0 mg/kg/injection, schedule: Q04DX003 (ip), vehicle: Klucel (hydroxypropylcellulose) (HPC)
[5] = dose: 100.0 mg/kg/injection, schedule: Q01DX005 (ip), vehicle: Klucel (hydroxypropylcellulose) (HPC)
[6] = dose: 200.0 mg/kg/injection, schedule: Q01DX005 (ip), vehicle: Klucel (hydroxypropylcellulose) (HPC)
[7] = dose: 60.0 mg/kg/injection, schedule: Q01DX005 (ip), vehicle: saline with Tween-80
[8] = dose: 120.0 mg/kg/injection, schedule: Q01DX005 (ip), vehicle: saline with Tween-80
[9] = dose: 50.0 mg/kg/injection, schedule: Q01DX005 (ip), vehicle: saline with Tween-80
[10] = dose: 100.0 mg/kg/injection, schedule: Q01DX005 (ip), vehicle: saline with Tween-80
[11] = dose: 200.0 mg/kg/injection, schedule: Q01DX005 (ip), vehicle: saline with Tween-80
[12] = dose: 100.0 mg/kg/injection, schedule: Q01DX001 (ip), vehicle: Klucel (hydroxypropylcellulose) (HPC)
[13] = dose: 200.0 mg/kg/injection, schedule: Q01DX001 (ip), vehicle: Klucel (hydroxypropylcellulose) (HPC)
[14] = dose: 400.0 mg/kg/injection, schedule: Q01DX001 (ip), vehicle: Klucel (hydroxypropylcellulose) (HPC)
[15] = dose: 100.0 mg/kg/injection, schedule: Q01DX001 (ip), vehicle: saline with Tween-80
[16] = dose: 200.0 mg/kg/injection, schedule: Q01DX001 (ip), vehicle: saline with Tween-80
[17] = dose: 240.0 mg/kg/injection, schedule: Q01DX005 (ip), vehicle: saline with Tween-80
[18] = dose: 12.5 mg/kg/injection, schedule: Q01DX009 (ip), vehicle: saline with Tween-80
[19] = dose: 25.0 mg/kg/injection, schedule: Q01DX009 (ip), vehicle: saline with Tween-80

CO[C@@]12[C@@H]3N[C@@H]3CN1C1=C(C(=O)C(NCC3CCCO3)=C(C)C1=O)[C@@H]2COC(N)=O (some centres undefined)
T/C (dose: 1.56 mg/kg/injection, schedule: Q01DX005 (ip), vehicle: distilled water + Tween-80): 155 % of control
T/C (dose: 3.12 mg/kg/injection, schedule: Q01DX005 (ip), vehicle: distilled water + Tween-80): 194 % of control
T/C (dose: 6.25 mg/kg/injection, schedule: Q01DX005 (ip), vehicle: distilled water + Tween-80): 198 % of control and 241 % of control
T/C (dose: 12.5 mg/kg/injection, schedule: Q01DX001 (ip), vehicle: distilled water + Tween-80): 158 % of control
T/C (dose: 12.5 mg/kg/injection, schedule: Q01DX005 (ip), vehicle: distilled water + Tween-80): 223 % of control and 225 % of control
T/C (dose: 25.0 mg/kg/injection, schedule: Q01DX001 (ip), vehicle: distilled water + Tween-80): 165 % of control
T/C (dose: 25.0 mg/kg/injection, schedule: Q01DX005 (ip), vehicle: distilled water + Tween-80): 100 % of control and 207 % of control
T/C (dose: 50.0 mg/kg/injection, schedule: Q01DX001 (ip), vehicle: distilled water + Tween-80): 203 % of control

N#CC(C#N)=NNc1ccc2cn[nH]c2c1
T/C (dose: 12.5 mg/kg/injection, schedule: Q01DX005 (ip), vehicle: Klucel (hydroxypropylcellulose) (HPC)): 101 % of control
T/C (dose: 25.0 mg/kg/injection, schedule: Q01DX005 (ip), vehicle: Klucel (hydroxypropylcellulose) (HPC)): 105 % of control and 107 % of control
T/C [1]: 116 % of control and 119 % of control and 120 % of control

c1ccc2cc(SCCCN3CCOCC3)ccc2c1
T/C (dose: 50.0 mg/kg/injection, schedule: Q01DX009 (ip), vehicle: saline sonified): 100 % of control
T/C (dose: 100.0 mg/kg/injection, schedule: Q01DX009 (ip), vehicle: saline sonified): 104 % of control
T/C (dose: 200.0 mg/kg/injection, schedule: Q01DX009 (ip), vehicle: saline sonified): 100 % of control

Cc1ccc(-c2cn3c(n2)SCC3)cc1
T/C [2]: 99 % of control
T/C [3]: 106 % of control
T/C [4]: 99 % of control

CC(=O)OCC1OC(c2ccccc2)C/C(=N/O)C1OC(C)=O (centres undefined)
T/C [1]: 96 % of control
T/C [5]: 93 % of control
T/C [6]: 94 % of control

CNc1nc2cc(OC)c(OC)cc2c(=O)[nH]1
T/C (dose: 15.0 mg/kg/injection, schedule: Q01DX005 (ip), vehicle: saline with Tween-80): 98 % of control
T/C (dose: 30.0 mg/kg/injection, schedule: Q01DX005 (ip), vehicle: saline with Tween-80): 94 % of control
T/C [7]: 91 % of control and 98 % of control
T/C [8]: 100 % of control

Nc1ccccc1SC1CCCCC1O (centres undefined)
T/C (dose: 25.0 mg/kg/injection, schedule: Q01DX009 (ip), vehicle: saline): 101 % of control
T/C (dose: 50.0 mg/kg/injection, schedule: Q01DX009 (ip), vehicle: saline): 97 % of control
T/C (dose: 100.0 mg/kg/injection, schedule: Q01DX009 (ip), vehicle: saline): 97 % of control
T/C (dose: 200.0 mg/kg/injection, schedule: Q01DX009 (ip), vehicle: saline): 102 % of control

NC(=O)C1C2C=CC(C2)C1C(N)=O (centres undefined)
T/C (dose: 60.0 mg/kg/injection, schedule: Q01DX005 (ip), vehicle: Klucel (hydroxypropylcellulose) (HPC)): 97 % of control
T/C (dose: 120.0 mg/kg/injection, schedule: Q01DX005 (ip), vehicle: Klucel (hydroxypropylcellulose) (HPC)): 103 % of control
T/C (dose: 240.0 mg/kg/injection, schedule: Q01DX005 (ip), vehicle: Klucel (hydroxypropylcellulose) (HPC)): 97 % of control

C1CCC2CC2C2(CC1)CO2 (centres undefined)
T/C [2]: 106 % of control
T/C [3]: 108 % of control
T/C [4]: 115 % of control

CC(C)CCCCCCCCCCCCC(=O)NCCC(=O)NC1C(CO)OC(Nc2ncnc3nc[nH]c23)C(O)C1O (centres undefined)
T/C (dose: 0.39 mg/kg/injection, schedule: Q01DX009 (ip), vehicle: other): 107 % of control
T/C (dose: 0.78 mg/kg/injection, schedule: Q01DX009 (ip), vehicle: other): 102 % of control
T/C (dose: 1.56 mg/kg/injection, schedule: Q01DX009 (ip), vehicle: other): 156 % of control
T/C (dose: 6.25 mg/kg/injection, schedule: Q01DX009 (ip), vehicle: other): 112 % of control and 96 % of control
T/C (dose: 12.5 mg/kg/injection, schedule: Q01DX009 (ip), vehicle: other): 93 % of control

ON1c2ccc3ccccc3c2C=CC1(c1ccccc1)c1ccccc1
T/C [9]: 103 % of control
T/C [10]: 103 % of control
T/C [11]: 97 % of control

O=C(Nc1ccccc1)c1ccco1
T/C [12]: 106 % of control
T/C [13]: 102 % of control
T/C [14]: 96 % of control

COc1ccc(N/C(=C/C#N)c2ccccc2)cc1
T/C [15]: 100 % of control
T/C [16]: 99 % of control
T/C (dose: 400.0 mg/kg/injection, schedule: Q01DX001 (ip), vehicle: saline with Tween-80): 95 % of control

CCOC(=O)c1nc[nH]c1C
T/C [9]: 100 % of control
T/C [10]: 101 % of control
T/C [11]: 100 % of control

O=C(O)C(CS)NCCNC(CS)C(=O)O (centres undefined)
T/C (dose: 12.5 mg/kg/injection, schedule: Q01DX001 (ip), vehicle: Klucel (hydroxypropylcellulose) (HPC)): 97 % of control
T/C (dose: 25.0 mg/kg/injection, schedule: Q01DX001 (ip), vehicle: Klucel (hydroxypropylcellulose) (HPC)): 97 % of control

COc1ccc(/C=N/NC(=O)C(O)c2ccccc2)cc1 (centres undefined)
T/C [7]: 99 % of control
T/C [8]: 90 % of control
T/C [17]: 91 % of control

O=C(SCNS(=O)(=O)c1ccccc1)c1ccccc1
T/C [12]: 111 % of control
T/C [13]: 113 % of control
T/C [14]: 114 % of control

CC1(C)OC2C(COC(=O)c3ccc([N+](=O)[O-])cc3)OC(NC(=O)N(CCCl)N=O)C2O1 (centres undefined)
T/C (dose: 0.09 mg/kg/injection, schedule: Q01DX009 (ip), vehicle: saline with Tween-80): 119 % of control
T/C (dose: 0.19 mg/kg/injection, schedule: Q01DX009 (ip), vehicle: saline with Tween-80): 119 % of control
T/C (dose: 0.39 mg/kg/injection, schedule: Q01DX009 (ip), vehicle: saline with Tween-80): 119 % of control
T/C (dose: 1.56 mg/kg/injection, schedule: Q01DX009 (ip), vehicle: saline with Tween-80): 153 % of control
T/C (dose: 3.12 mg/kg/injection, schedule: Q01DX009 (ip), vehicle: saline with Tween-80): 174 % of control
T/C [18]: 202 % of control
T/C [19]: 272 % of control
T/C (dose: 50.0 mg/kg/injection, schedule: Q01DX009 (ip), vehicle: saline with Tween-80): 282 % of control
T/C (dose: 100.0 mg/kg/injection, schedule: Q01DX009 (ip), vehicle: saline with Tween-80): 154 % of control
T/C (dose: 200.0 mg/kg/injection, schedule: Q01DX009 (ip), vehicle: saline with Tween-80): 109 % of control

O=C(O)C(Nc1ccc2ccccc2c1)C(=O)O
T/C [9]: 94 % of control
T/C [10]: 103 % of control
T/C [11]: 94 % of control

CCCC(=O)c1ccc(C)cc1
T/C (dose: 100.0 mg/kg/injection, schedule: Q04DX003 (ip), vehicle: saline with Tween-80): 104 % of control
T/C (dose: 200.0 mg/kg/injection, schedule: Q04DX003 (ip), vehicle: saline with Tween-80): 104 % of control
T/C (dose: 400.0 mg/kg/injection, schedule: Q04DX003 (ip), vehicle: saline with Tween-80): 86 % of control

NC(=O)CCC(NS(=O)(=O)c1ccc(NC(=O)c2ccc(Cl)cc2)cc1)C(=O)O (centres undefined)
T/C [1]: 104 % of control
T/C [5]: 102 % of control
T/C [6]: 102 % of control

C[C@@H]1C[C@H](C)S(=O)[C@H](C)S1 (some centres undefined)
T/C (dose: 100.0 mg/kg/injection, schedule: Q04DX002 (ip), vehicle: saline): 101 % of control
T/C (dose: 200.0 mg/kg/injection, schedule: Q04DX002 (ip), vehicle: saline): 102 % of control
T/C (dose: 400.0 mg/kg/injection, schedule: Q04DX002 (ip), vehicle: saline): 100 % of control

COc1ccc2sc3c(C)ccc(NCCC4CCCN5CCCCC45)c3c(=O)c2c1 (centres undefined)
T/C [15]: 87 % of control
T/C [16]: 87 % of control

O/N=C(\c1ccccc1)C1c2ccccc2-c2ccccc21
T/C [7]: 94 % of control
T/C [8]: 94 % of control
T/C [17]: 94 % of control

CCCOC(=O)/C=C(\Br)C(=O)OCCC
T/C (dose: 6.25 mg/kg/injection, schedule: Q01DX009 (ip), vehicle: saline with Tween-80): 113 % of control
T/C [18]: 116 % of control and 117 % of control
T/C [19]: 103 % of control

Reference: PubChem BioAssay AID330 (DTP/NCI, 2004)
